Source: US8785488B2 (Exelixis Patent Company LLC, priority 2009, dated 2014)

Legend:
human TGR5 (h-TGR5) = biological target: T1, human TGR5 (h-TGR5) (Homo sapiens, UniProt Q8TDU6); test: TGR5/CRE-Luciferiase Assay (HEK 293 hTGR5/CRE-Luc cells); format: cell-based; conditions: h-TGR5 CRE-Luc EC50, Table 1; read-out: CRE-Luc (EC50)
T1 construct: expressed in transfected cells
T1 sequence (Q8TDU6 1-330): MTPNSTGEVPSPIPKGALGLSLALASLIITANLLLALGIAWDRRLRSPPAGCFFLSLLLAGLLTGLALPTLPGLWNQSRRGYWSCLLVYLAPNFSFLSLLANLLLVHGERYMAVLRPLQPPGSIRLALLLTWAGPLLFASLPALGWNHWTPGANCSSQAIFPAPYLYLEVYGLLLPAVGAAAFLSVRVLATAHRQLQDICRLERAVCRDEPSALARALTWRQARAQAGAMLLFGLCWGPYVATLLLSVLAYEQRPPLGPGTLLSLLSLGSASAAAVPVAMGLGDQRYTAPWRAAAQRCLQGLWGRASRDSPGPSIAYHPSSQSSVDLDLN
Procedure, shortened: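 HEK293 cells stably carrying hTGR5 and a CRE-luciferase reporter were exposed to serially diluted compounds (diluted in DMEM with 5% DMSO) for 6 h. Cells were then lysed in luciferase buffer, luminescence was read, and EC50 values were derived from dose-response curves.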

h-TGR5 = biological target: T2, h-TGR5 (Homo sapiens, UniProt Q8TDU6); test: TGR5 cAMP Assay using Cisbio cAMP Dynamic2 htrf kit (hTGR5CRE-luc HEK 293 cells); format: cell-based; conditions: h-TGR5 cAMP EC50, Table 1; read-out: cAMP (EC50)
T2 construct: expressed in transfected cells
T2 sequence (Q8TDU6 1-330): T1 sequence (Q8TDU6 1-330)
Experimental: Compounds were diluted in DPBS with 5% DMSO (8-point serial dilution by half logs) in a 96-well plate and 1 μL was transferred to a 384-well assay plate in quadruplicate. The d2-cAMP and anti-cAMP Ab-cryptate stock solution were prepared as per the instructions in the Cisbio™ (Bedford, Mass.) kit. […] Cells were adjusted to 0.44×10^6 cells/ml followed by addition of IBMX to a final concentration of 0.5 mM. The cells were then mixed with d2-cAMP solution (7.1 mL cells+100 ul d2-cAMP) and 4000 cells (9 μL) were transferred to each well of the 384-well assay plate. Cells without d2-cAMP were added to eight wells as a negative control. The plate was covered and incubated at room temp for 30 min. Then 10 μL of Ab-cryptate solution was added to each well of the assay plate and incubated for 1 hr. The plate was read on an EnVision™ plate reader (Perkin-Elmer, Waltham, Mass.) and the DeltaF value was calculated as per the instructions in the Cisbio™ kit.
In the following tables, EC50 values determined according to the TGR5 cAMP Assay described herein (cAMP); EC50 values determined according to the TGR5/CRE-Luciferiase Assay described herein (CRE-Luc). […] The following compounds in Tables 1 and 2 were made by using procedures described in the above Schemes and Examples, and, where applicable, by making any necessary substitutions of known materials that one skilled in the art would ordinarily understand how to do.

For `COc1cc(-n2c(C(C)(C)c3ccc(Cl)c(Cl)c3)cnc2SCc2ccc(C#CCNC(=N)N)c(C(=O)O)c2)ccc1F` [2-(3-{[amino(imino)methyl]amino}prop-1-yn-1-yl)-5-[({5-[1-(3,4-dichlorophenyl)-1-methylethyl]-1-[4-fluoro-3-(methyloxy)phenyl]-1H-imidazol-2-yl}thio)methyl]benzoic acid], which EC50 (human TGR5 (h-TGR5)) is on record?
The EC50 was 100 to 1000 nM.

What about the EC50 (h-TGR5) of the same compound?
Its EC50 is 100 to 1000 nM.

Which results are given for `COc1cc(C(C)(C)c2cnc(SCc3ccc(CCCNC(=N)N)c(C(=O)O)c3)n2-c2ccc(F)cc2)ccc1Cl` [2-(3-{[amino(imino)methyl]amino}propyl)-5-({[5-{1-[4-chloro-3-(methyloxy)phenyl]-1-methylethyl}-1-(4-fluorophenyl)-1H-imidazol-2-yl]thio}methyl)benzoic acid]?
EC50 (human TGR5 (h-TGR5)): < 100 nM; EC50 (h-TGR5): 100 to 1000 nM

What does the source list for `COc1cc(-n2c(C(C)(C)c3ccc(Cl)c(Cl)c3)cnc2SCc2ccc(CCCNC(=N)N)c(C(=O)O)c2)ccc1F` [2-(3-{[amino(imino)methyl]amino}propyl)-5-[({5-[1-(3,4-dichlorophenyl)-1-methylethyl]-1-[4-fluoro-3-(methyloxy)phenyl]-1H-imidazol-2-yl}thio)methyl]benzoic acid]?
EC50 (human TGR5 (h-TGR5)): 100 to 1000 nM; EC50 (h-TGR5): 100 to 1000 nM

What does the source list for `CCN(CC)CCS(=O)(=O)N1CCC(CSc2ncc(C(C)(C)c3ccc(Cl)c(Cl)c3)n2-c2ccc(F)cc2)CC1` [2-({4-[({5-[1-(3,4-dichlorophenyl)-1-methylethyl]-1-(4-fluorophenyl)-1H-imidazol-2-yl}thio)methyl]piperidin-1-yl}sulfonyl)-N,N-diethylethanamine]?
EC50 (human TGR5 (h-TGR5)): 100 to 1000 nM; EC50 (h-TGR5): 100 to 1000 nM

How did the EC50 (human TGR5 (h-TGR5)) turn out when `CC(C)(c1ccc(Cl)c(Cl)c1)c1cnc(CCc2c(F)cc(C(=O)NCCS(=O)(=O)O)cc2Cl)n1-c1ccc(F)cc1` [2-({[3-chloro-4-(2-{5-[1-(3,4-dichlorophenyl)-1-methylethyl]-1-(4-fluorophenyl)-1H-imidazol-2-yl}ethyl)-5-fluorophenyl]carbonyl}amino)ethanesulfonic acid] was run?
Its EC50 is less than 100 nM.

What about the EC50 (h-TGR5) of the same compound?
The EC50 was less than 100 nM.

Which results are given for `COc1cc(C(C)(C)c2cnc(SCc3c(F)cc(C(=O)NCCS(=O)(=O)O)cc3Cl)n2-c2ccc(F)cc2)ccc1Cl` [2-({[3-chloro-4-({[5-{1-[4-chloro-3-(methyloxy)phenyl]-1-methylethyl}-1-(4-fluorophenyl)-1H-imidazol-2-yl]thio}methyl)-5-fluorophenyl]carbonyl}amino)ethanesulfonic acid]?
EC50 (human TGR5 (h-TGR5)): < 100 nM; EC50 (h-TGR5): < 100 nM

With `COc1cc(C(C)(C)c2cnc(SCc3c(F)cc(S(=O)(=O)NCCS(=O)(=O)O)cc3Cl)n2-c2ccc(F)cc2)ccc1Cl` [2-({[3-chloro-4-({[5-{1-[4-chloro-3-(methyloxy)phenyl]-1-methylethyl}-1-(4-fluorophenyl)-1H-imidazol-2-yl]thio}methyl)-5-fluorophenyl]sulfonyl}amino)ethanesulfonic acid] as the compound, how does the EC50 (human TGR5 (h-TGR5)) read?
Its EC50 is less than 100 nM.

And the EC50 (h-TGR5)?
Its EC50 is less than 100 nM.

Which results are given for `COc1cc(C(C)(C)c2cnc(SCc3c(F)cc(C(=O)NCCS(=O)(=O)O)cc3F)n2-c2ccc(F)cc2)ccc1Cl` [2-({[4-({[5-{1-[4-chloro-3-(methyloxy)phenyl]-1-methylethyl}-1-(4-fluorophenyl)-1H-imidazol-2-yl]thio}methyl)-3,5-difluorophenyl]carbonyl}amino) ethanesulfonic acid]?
EC50 (human TGR5 (h-TGR5)): < 100 nM; EC50 (h-TGR5): < 100 nM

`COc1cc(C(C)(C)c2cnc(SCc3c(F)cc(S(=O)(=O)NCCS(=O)(=O)O)cc3F)n2-c2ccc(F)cc2)ccc1Cl` [2-({[4-({[5-{1-[4-chloro-3-(methyloxy)phenyl]-1-methylethyl}-1-(4-fluorophenyl)-1H-imidazol-2-yl]thio}methyl)-3,5-difluorophenyl]sulfonyl}amino)ethanesulfonic acid] was tested. Which EC50 (human TGR5 (h-TGR5)) did it give?
The EC50 was less than 100 nM.

What about the EC50 (h-TGR5) of the same compound?
The EC50 was less than 100 nM.

For `COc1cc(C(C)(C)c2cnc(SCc3ccc(C(=O)NCCS(=O)(=O)O)cc3F)n2-c2ccc(F)cc2)ccc1Cl` [2-({[4-({[5-{1-[4-chloro-3-(methyloxy)phenyl]-1-methylethyl}-1-(4-fluorophenyl)-1H-imidazol-2-yl]thio}methyl)-3-fluorophenyl]carbonyl}amino)ethanesulfonic acid], which EC50 (human TGR5 (h-TGR5)) is on record?
The EC50 was less than 100 nM.

What about the EC50 (h-TGR5) of the same compound?
Its EC50 is less than 100 nM.

How did the EC50 (human TGR5 (h-TGR5)) turn out when `CC(C)(c1ccc(Cl)c(Cl)c1)c1cnc(CCc2c(F)cccc2Cl)n1-c1ccc(F)cc1` [2-[2-(2-chloro-6-fluorophenyl)ethyl]-5-[1-(3,4-dichlorophenyl)-1-methylethyl]-1-(4-fluorophenyl)-1H-imidazole] was run?
Its EC50 is 100 to 1000 nM.

What about the EC50 (h-TGR5) of the same compound?
The EC50 was 100 to 1000 nM.

For `COc1cc(C(C)(C)c2cnc(SCc3c(F)cc(C(C)(C)O)cc3Cl)n2-c2ccc(F)cc2)ccc1Cl` [2-[3-chloro-4-({[5-{1-[4-chloro-3-(methyloxy)phenyl]-1-methylethyl}-1-(4-fluorophenyl)-1H-imidazol-2-yl]thio}methyl)-5-fluorophenyl]propan-2-ol], which EC50 (human TGR5 (h-TGR5)) is on record?
Its EC50 is less than 100 nM.

What about the EC50 (h-TGR5) of the same compound?
Its EC50 is less than 100 nM.

What does the source list for `CC(C)(c1ccc(Cl)c(Cl)c1)c1cnc(SCc2c(F)cc(C(=O)NCCS(=O)(=O)O)cc2F)n1-c1ccc(F)c(Cl)c1` [2-[({4-[({1-(3-chloro-4-fluorophenyl)-5-[1-(3,4-dichlorophenyl)-1-methylethyl]-1H-imidazol-2-yl}thio)methyl]-3,5-difluorophenyl}carbonyl)amino]ethanesulfonic acid]?
EC50 (human TGR5 (h-TGR5)): < 100 nM; EC50 (h-TGR5): < 100 nM

How did the EC50 (human TGR5 (h-TGR5)) turn out when `CC(C)(c1ccc(Cl)c(Cl)c1)c1cnc(SCc2ccc(C(=O)NCCS(=O)(=O)O)cc2F)n1-c1ccc(F)cc1` [2-[({4-[({5-[1-(3,4-dichlorophenyl)-1-methylethyl]-1-(4-fluorophenyl)-1H-imidazol-2-yl}thio)methyl]-3-fluorophenyl}carbonyl)amino]ethanesulfonic acid-sodium (1:1)] was run?
The EC50 was 100 to 1000 nM.

What about the EC50 (h-TGR5) of the same compound?
Its EC50 is less than 100 nM.

With `COc1cc(-n2c(C(C)(C)c3ccc(Cl)c(Cl)c3)cnc2SCc2c(F)cc(C(=O)NCCS(=O)(=O)O)cc2F)ccc1F` [2-[({4-[({5-[1-(3,4-dichlorophenyl)-1-methylethyl]-1-[4-fluoro-3-(methyloxy)phenyl]-1H-imidazol-2-yl}thio)methyl]-3,5-difluorophenyl}carbonyl)amino]ethanesulfonic acid] as the compound, how does the EC50 (human TGR5 (h-TGR5)) read?
Its EC50 is less than 100 nM.

What about the EC50 (h-TGR5) of the same compound?
The EC50 was less than 100 nM.

Which EC50 (human TGR5 (h-TGR5)) does the source give for `COc1cc(-n2c(C(C)(C)c3ccc(S(N)(=O)=O)c(Cl)c3)cnc2SCc2ccc(Cl)c(-c3nnn[nH]3)c2)ccc1F` [2-chloro-4-(1-{2-({[4-chloro-3-(1H-tetrazol-5-yl)phenyl]methyl}thio)-1-[4-fluoro-3-(methyloxy)phenyl]-1H-imidazol-5-yl}-1-methylethyl)benzenesulfonamide] here?
The EC50 was 100 to 1000 nM.

And the EC50 (h-TGR5)?
The EC50 was 100 to 1000 nM.

How did the EC50 (human TGR5 (h-TGR5)) turn out when `CC(C)(c1ccc(Cl)c(Cl)c1)c1cnc(SCc2ccc(C(=O)O)c(Cl)c2)n1-c1ccc(F)cc1` [2-chloro-4-[({5-[1-(3,4-dichlorophenyl)-1-methylethyl]-1-(4-fluorophenyl)-1H-imidazol-2-yl}thio)methyl]benzoic acid] was run?
The EC50 was 100 to 1000 nM.

And the EC50 (h-TGR5)?
The EC50 was 100 to 1000 nM.

`CC(C)(c1ccc(S(N)(=O)=O)c(Cl)c1)c1cnc(SCc2ccc(Cl)c(-c3nnn[nH]3)c2)n1-c1ccc(F)c(F)c1` [2-chloro-4-{1-[2-({[4-chloro-3-(1H-tetrazol-5-yl)phenyl]methyl}thio)-1-(3,4-difluorophenyl)-1H-imidazol-5-yl]-1-methylethyl}benzenesulfonamide] was tested. Which EC50 (human TGR5 (h-TGR5)) did it give?
Its EC50 is 100 to 1000 nM.

What about the EC50 (h-TGR5) of the same compound?
The EC50 was 100 to 1000 nM.

What does the source list for `CC(C)(c1ccc(S(N)(=O)=O)c(Cl)c1)c1cnc(SCc2ccc(Cl)c(-c3nnn[nH]3)c2)n1-c1ccc(F)cc1` [2-chloro-4-{1-[2-({[4-chloro-3-(1H-tetrazol-5-yl)phenyl]methyl}thio)-1-(4-fluorophenyl)-1H-imidazol-5-yl]-1-methylethyl}benzenesulfonamide]?
EC50 (human TGR5 (h-TGR5)): 100 to 1000 nM; EC50 (h-TGR5): 100 to 1000 nM

How did the EC50 (human TGR5 (h-TGR5)) turn out when `CC(C)(c1ccc(C(N)=O)c(Cl)c1)c1cnc(SCc2ccc(F)cc2Cl)n1-c1ccc(F)cc1` [2-chloro-4-{1-[2-{[(2-chloro-4-fluorophenyl)methyl]thio}-1-(4-fluorophenyl)-1H-imidazol-5-yl]-1-methylethyl}benzamide] was run?
The EC50 was 100 to 1000 nM.

What about the EC50 (h-TGR5) of the same compound?
Its EC50 is less than 100 nM.

What does the source list for `CC(C)(c1ccc(S(N)(=O)=O)c(Cl)c1)c1cnc(SCc2ccc(F)cc2Cl)n1-c1ccc(F)cc1` [2-chloro-4-{1-[2-{[(2-chloro-4-fluorophenyl)methyl]thio}-1-(4-fluorophenyl)-1H-imidazol-5-yl]-1-methylethyl}benzenesulfonamide]?
EC50 (human TGR5 (h-TGR5)): < 100 nM; EC50 (h-TGR5): 100 to 1000 nM
